Source: PMC9403976, “Elucidating the path to Plasmodium prolyl-tRNA synthetase inhibitors that overcome halofuginone resistance” (Nature Communications, 2022)
Where “and” joins values, the source holds several entries; their conditions need not be identical. Identical values can stand only once. Like-named read-outs stand apart in the source and are kept apart here.

How the values were obtained:
[1] = system: HFGR-I P. falciparum (elevated proline homeostasis and PfcProRS^L482H); test: P. falciparum ABS growth assay, SYBR Green, 72 h, HFGR-I parasites; type: cell-based, Plasmodium falciparum; conditions: HFGR-I
How it was run: (§1)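 Asexual blood-stage Dd2 parasites, 1% parasitemia/1% hematocrit, RPMI + 0.5% Albumax; triplicate dose-response, 72 h. Readout SYBR Green 1 fluorescence. Controls: 10 μM dihydroartemisinin (kill), no compound (growth). EC50 values determined.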

[2] = system: halofuginone-induced P. falciparum (elevated proline homeostasis); test: P. falciparum ABS growth assay, SYBR Green, 72 h, halofuginone-induced parasites; type: cell-based, Plasmodium falciparum; conditions: Halofuginone-Induced (HFG-Induced)
How it was run: as §1

HsProRS = HsProRS (Homo sapiens, UniProt P07814); test: TR-FRET ligand displacement assay with tracer MAT379 (CoraFluor-1-Halo and anti-His6 antibody formats); type: binding; parameters: made in house; host or cells: E. coli SoluBL-21; conditions: for Kd: 250 nM MAT379; for normalized TR-FRET signal (dose-response replicates): SI Fig 17a
HsProRS, sequence (P07814 996-1512): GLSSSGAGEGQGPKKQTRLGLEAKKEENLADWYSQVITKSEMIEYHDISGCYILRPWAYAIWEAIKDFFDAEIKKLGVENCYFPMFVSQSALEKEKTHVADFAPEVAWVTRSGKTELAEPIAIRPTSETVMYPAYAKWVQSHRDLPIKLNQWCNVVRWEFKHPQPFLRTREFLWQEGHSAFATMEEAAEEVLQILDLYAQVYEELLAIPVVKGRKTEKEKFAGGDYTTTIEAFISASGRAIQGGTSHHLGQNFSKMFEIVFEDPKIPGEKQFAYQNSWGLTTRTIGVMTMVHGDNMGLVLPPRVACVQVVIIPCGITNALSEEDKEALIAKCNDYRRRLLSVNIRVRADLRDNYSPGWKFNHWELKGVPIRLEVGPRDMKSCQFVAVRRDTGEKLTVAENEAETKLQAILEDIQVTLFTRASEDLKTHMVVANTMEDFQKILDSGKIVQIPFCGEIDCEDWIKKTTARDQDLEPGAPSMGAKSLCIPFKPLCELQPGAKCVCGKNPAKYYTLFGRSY

P. falciparum Dd2-2D4 = test: P. falciparum asexual blood stage (ABS) growth assay, SYBR Green, 72 h, wild-type parasites; type: cell-based, Plasmodium falciparum; conditions: Plasmodium falciparum, DD2; SI Fig 16b; values on -log scale; read-out: ABS - Dd2-2D4 (converted)
PfcProRS = biological target: T1, PfcProRS (Plasmodium falciparum, UniProt Q8I5R7); type: binding; conditions: for Normalized response, dose-response replicates (SI Fig 14): replicates 1-3
T1 construct: made in house; host or cells: E. coli SoluBL-21
T1 sequence (Q8I5R7 249-746): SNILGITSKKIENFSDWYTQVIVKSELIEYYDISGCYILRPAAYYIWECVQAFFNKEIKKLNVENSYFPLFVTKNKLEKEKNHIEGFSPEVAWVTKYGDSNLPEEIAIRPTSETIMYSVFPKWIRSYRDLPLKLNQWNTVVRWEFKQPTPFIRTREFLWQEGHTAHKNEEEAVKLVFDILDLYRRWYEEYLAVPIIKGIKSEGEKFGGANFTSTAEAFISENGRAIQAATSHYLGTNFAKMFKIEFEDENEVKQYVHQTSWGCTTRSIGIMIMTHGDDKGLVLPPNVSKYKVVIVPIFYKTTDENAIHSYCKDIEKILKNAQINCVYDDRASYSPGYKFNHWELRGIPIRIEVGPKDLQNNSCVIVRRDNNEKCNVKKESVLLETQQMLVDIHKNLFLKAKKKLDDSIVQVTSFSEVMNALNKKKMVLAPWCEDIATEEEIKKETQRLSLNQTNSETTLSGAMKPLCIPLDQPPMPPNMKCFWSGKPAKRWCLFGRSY

[3] = Log[inhibitor] (M) -5.000, series r16-r27

Compound: CC(C)(C)OC(=O)N1CCC[C@H]1C(=O)NCC1CCN(C(=O)Nc2nccnc2C(=O)NC2Cc3ccccc3C2)CC1 [compound 32]
- parasite growth, dose-response point [1, 3]: 65 and 64 and 69
- parasite growth, dose-response point ([1]; Log[inhibitor] (M) -5.408): 103 and 102 and 96
- parasite growth, dose-response point ([1]; Log[inhibitor] (M) -5.816): 108 (2×) and 102
- parasite growth, dose-response point ([1]; Log[inhibitor] (M) -6.222): 105
- parasite growth, dose-response point ([1]; Log[inhibitor] (M) -6.638): 107 and 104 and 103
- parasite growth, dose-response point ([1]; Log[inhibitor] (M) -7.046): 101 and 105 and 99
- parasite growth, dose-response point ([1]; Log[inhibitor] (M) -7.450): 87 and 91 and 96
- parasite growth, dose-response point ([1]; Log[inhibitor] (M) -7.854): 87 and 93 and 83
- parasite growth, dose-response point ([1]; Log[inhibitor] (M) -8.260): 88 and 90 and 94
- parasite growth, dose-response point ([1]; Log[inhibitor] (M) -8.699): 93 and 91
- parasite growth, dose-response point ([1]; Log[inhibitor] (M) -9.000): 91 and 92 and 87
- parasite growth, dose-response point ([1]; Log[inhibitor] (M) -9.488): 92 and 82
- parasite growth, dose-response point [2, 3]: 56 and 59 and 61
- parasite growth, dose-response point ([2]; Log[inhibitor] (M) -5.408): 91 and 93
- parasite growth, dose-response point ([2]; Log[inhibitor] (M) -5.816): 97 and 101
- parasite growth, dose-response point ([2]; Log[inhibitor] (M) -6.222): 101 and 104
- parasite growth, dose-response point ([2]; Log[inhibitor] (M) -6.638): 105 and 99 and 109
- parasite growth, dose-response point ([2]; Log[inhibitor] (M) -7.046): 102 and 106
- parasite growth, dose-response point ([2]; Log[inhibitor] (M) -7.450): 96 and 98 and 97
- parasite growth, dose-response point ([2]; Log[inhibitor] (M) -7.854): 92 and 97 and 99
- parasite growth, dose-response point ([2]; Log[inhibitor] (M) -8.260): 102 and 96 and 100
- parasite growth, dose-response point ([2]; Log[inhibitor] (M) -8.699): 96 and 106 and 94
- parasite growth, dose-response point ([2]; Log[inhibitor] (M) -9.000): 100 and 96 and 98
- parasite growth, dose-response point ([2]; Log[inhibitor] (M) -9.488): 96 and 100 and 101
- Kd (HsProRS; HsProRS (KD [nM]) + proline, 100 μM proline): 270 nM
- Kd (HsProRS; HsProRS (KD [nM]) −, absence of substrates): 72.1 nM
- normalised signal, dose-response point (Fig 4d) (HsProRS; Log[inhibitor] (M) -5.000, series of 32): 2.12E-01 and 2.00E-01 and 2.05E-01
- normalised signal, dose-response point (Fig 4d) (HsProRS; Log[inhibitor] (M) -5.260): 3.41E-01 and 3.06E-01 and 3.25E-01
- normalised signal, dose-response point (Fig 4d) (HsProRS; Log[inhibitor] (M) -5.520): 5.51E-01 and 5.09E-01 and 5.11E-01
- normalised signal, dose-response point (Fig 4d) (HsProRS; Log[inhibitor] (M) -5.770): 5.87E-01 and 6.67E-01 and 6.60E-01
- normalised signal, dose-response point (Fig 4d) (HsProRS; Log[inhibitor] (M) -6.020): 8.17E-01 and 7.53E-01 and 7.81E-01
- normalised signal, dose-response point (Fig 4d) (HsProRS; Log[inhibitor] (M) -6.280): 8.69E-01 and 9.20E-01 and 9.33E-01
- normalised signal, dose-response point (Fig 4d) (HsProRS; Log[inhibitor] (M) -6.530): 9.20E-01 and 9.88E-01 and 9.42E-01
- normalised signal, dose-response point (Fig 4d) (HsProRS; Log[inhibitor] (M) -6.800): 9.40E-01 and 8.89E-01
- normalised signal, dose-response point (Fig 4d) (HsProRS; Log[inhibitor] (M) -7.060): 9.33E-01 and 9.82E-01 and 1.04E+00
- normalised signal, dose-response point (Fig 4d) (HsProRS; Log[inhibitor] (M) -7.320): 9.28E-01 and 1.05E+00 and 1.04E+00
- normalised signal, dose-response point (Fig 4d) (HsProRS; Log[inhibitor] (M) -7.550): 9.75E-01 and 9.78E-01 and 9.48E-01
- normalised signal, dose-response point (Fig 4d) (HsProRS; Log[inhibitor] (M) -7.800): 9.53E-01 and 9.20E-01 and 9.82E-01
- normalised signal, dose-response point (Fig 4d) (HsProRS; Log[inhibitor] (M) -8.100): 1.05E+00 and 1.02E+00 and 1.07E+00
- normalised signal, dose-response point (Fig 4d) (HsProRS; Log[inhibitor] (M) -8.400): 1.08E+00 and 1.05E+00 and 1.02E+00
- normalised signal, dose-response point (Fig 4d) (HsProRS; Log[inhibitor] (M) -8.590): 1.09E+00 and 1.06E+00 and 1.01E+00
- normalized TR-FRET signal (dose-response replicates) (HsProRS; Log[inhibitor] (M) -5.000): 2.39E-01 and 2.20E-01 and 1.87E-01
- normalized TR-FRET signal (dose-response replicates) (HsProRS; Log[inhibitor] (M) -5.301): 3.62E-01 and 3.47E-01 and 3.37E-01
- normalized TR-FRET signal (dose-response replicates) (HsProRS; Log[inhibitor] (M) -5.601): 5.14E-01 and 4.86E-01 and 5.28E-01
- normalized TR-FRET signal (dose-response replicates) (HsProRS; Log[inhibitor] (M) -5.904): 6.65E-01 and 6.61E-01 and 6.44E-01
- normalized TR-FRET signal (dose-response replicates) (HsProRS; Log[inhibitor] (M) -6.208): 7.43E-01 and 7.50E-01 and 7.76E-01
- normalized TR-FRET signal (dose-response replicates) (HsProRS; Log[inhibitor] (M) -6.509): 8.47E-01 and 8.09E-01 and 8.87E-01
- normalized TR-FRET signal (dose-response replicates) (HsProRS; Log[inhibitor] (M) -6.796): 8.64E-01 and 8.39E-01 and 8.67E-01
- normalized TR-FRET signal (dose-response replicates) (HsProRS; Log[inhibitor] (M) -7.108): 8.86E-01 and 8.93E-01 and 9.29E-01
- normalized TR-FRET signal (dose-response replicates) (HsProRS; Log[inhibitor] (M) -7.409): 9.16E-01 and 8.51E-01 and 8.90E-01
- normalized TR-FRET signal (dose-response replicates) (HsProRS; Log[inhibitor] (M) -7.710): 8.73E-01 and 8.93E-01 and 9.04E-01
- normalized TR-FRET signal (dose-response replicates) (HsProRS; Log[inhibitor] (M) -8.000): 8.95E-01 and 8.48E-01 and 9.51E-01
- normalized TR-FRET signal (dose-response replicates) (HsProRS; Log[inhibitor] (M) -8.301): 9.44E-01 and 8.99E-01 and 9.43E-01
- normalized TR-FRET signal (dose-response replicates) (HsProRS; Log[inhibitor] (M) -8.602): 9.47E-01 and 8.94E-01 and 9.08E-01
- normalized TR-FRET signal (dose-response replicates) (HsProRS; Log[inhibitor] (M) -9.000): 8.96E-01 and 9.17E-01 and 8.59E-01
- normalized TR-FRET signal (dose-response replicates) (HsProRS; Log[inhibitor] (M) -9.301): 8.96E-01 and 9.24E-01 and 9.14E-01
- EC50 (P. falciparum Dd2-2D4): 63.2 nM
- Normalized response, dose-response replicates (SI Fig 14) (PfcProRS; Log[inhibitor] (M) -5.000): 8.11E-02 and -2.06E-02 and -4.64E-02
- Normalized response, dose-response replicates (SI Fig 14) (PfcProRS; Log[inhibitor] (M) -5.301): 3.54E-04 and -5.93E-02 and 6.94E-02
- Normalized response, dose-response replicates (SI Fig 14) (PfcProRS; Log[inhibitor] (M) -5.601): 6.67E-02 and 8.89E-02 and 6.64E-02
- Normalized response, dose-response replicates (SI Fig 14) (PfcProRS; Log[inhibitor] (M) -5.904): 2.31E-01 and 3.17E-01 and 2.64E-01
- Normalized response, dose-response replicates (SI Fig 14) (PfcProRS; Log[inhibitor] (M) -6.208): 3.63E-01 and 4.57E-01 and 4.26E-01
- Normalized response, dose-response replicates (SI Fig 14) (PfcProRS; Log[inhibitor] (M) -6.509): 7.41E-01 and 6.71E-01 and 7.68E-01
- Normalized response, dose-response replicates (SI Fig 14) (PfcProRS; Log[inhibitor] (M) -6.796): 9.02E-01 and 7.89E-01 and 8.70E-01
- Normalized response, dose-response replicates (SI Fig 14) (PfcProRS; Log[inhibitor] (M) -7.108): 8.53E-01 and 8.96E-01 and 8.71E-01
- Normalized response, dose-response replicates (SI Fig 14) (PfcProRS; Log[inhibitor] (M) -7.409): 8.49E-01 and 8.87E-01 and 9.83E-01
- Normalized response, dose-response replicates (SI Fig 14) (PfcProRS; Log[inhibitor] (M) -7.710): 9.08E-01 and 9.29E-01 and 9.85E-01
- Normalized response, dose-response replicates (SI Fig 14) (PfcProRS; Log[inhibitor] (M) -8.000): 9.86E-01 and 8.66E-01 and 9.79E-01
- Normalized response, dose-response replicates (SI Fig 14) (PfcProRS; Log[inhibitor] (M) -8.301): 1.11E+00 and 8.88E-01 and 9.05E-01
- Normalized response, dose-response replicates (SI Fig 14) (PfcProRS; Log[inhibitor] (M) -8.602): 9.30E-01 and 8.25E-01 and 1.02E+00
- Normalized response, dose-response replicates (SI Fig 14) (PfcProRS; Log[inhibitor] (M) -9.000): 8.77E-01 and 8.28E-01 and 9.46E-01
- Normalized response, dose-response replicates (SI Fig 14) (PfcProRS; Log[inhibitor] (M) -9.301): 8.47E-01 and 9.35E-01 and 9.98E-01
- PfcProRS -- best Kd (PfcProRS; SI Fig 16a, values on -log scale): 8.272
